{"source": "patent US11865103B2", "about": "“Methods of treating disorders associated with glycosylation defective proteins” (CASE WESTERN RESERVE UNIVERSITY, priority 2016, dated 2024)", "tested_on": "hair cells of hCLRN1^N48K-YFP; clrn1^KO/KO larvae", "assay": "Extracellular microphonic potentials of lateral line neuromast hair cells", "assay_type": "in vivo, zebrafish", "details": "0.4 uM ART 4 hours/day from 3 dpf to 6 dpf; recorded at 6 dpf; untreated 7.286", "procedure": "Zebrafish larvae at 6 dpf were anesthetized using MS-222 (Sigma-Aldrich) dissolved in a standard bath solution containing 120 mM NaCl, 2 mM KCl, 10 mM HEPES, 2 mM CaCl2, and 0.7 mM NaH2PO4 adjusted to pH 7.2. The larvae were then secured in a recording chamber using dental floss tie downs (Ricci and Fettiplace, 1997). Their blood flow and heart rate were visually observed to assess viability using an upright Olympus BX51WI microscope. Recordings were made with a PC-505B amplifier (Warner Instruments) and a PCI-6221 digitizer (National Instruments). Images were taken with a Grasshopper3 CMOS camera (Point Grey) and processed with software provided by the manufacturer. To record the activity of hair cells from the lateral line neuromasts, the cupula of neuromasts were deflected with a fluid jet placed ˜50 μm from the neuromast (Trapani and Nicolson, 2010) and controlled by an HSPC-1 (ALA Scientific Instruments) that delivered sinusoidal stimuli of 50 Hz. Microphonic potentials were recorded at room temperature (22° C.). […] Microphonic potentials were recorded using a jClamp for Windows (SciSoft, license: Joseph Santos-Sacchi, Yale University, New Haven, CT) in current-clamp mode, amplified by 20 (SIM983; Stanford 37 Research), and low-pass filtered at 200 Hz. […]"}
{"smiles": "C[C@@H]1CC[C@H]2[C@@H](C)C(=O)O[C@@H]3O[C@@]4(C)CC[C@@H]1[C@]32OO4", "note": "[ART, Artemisinin]", "values": [{"measurement": "Extracellular microphonic potentials (Mean±SEM)", "value": 9.529, "unit": "μV"}]}
